# Source: patent US20260207535A1, “CRIBLAGE INHIBITEURS USP8” (COMMISSARIAT A L'ENERGIE ATOMIQUE ET AUX ENERGIES …, priority 2022, published 2026)
# Legend:
# [1] = target: T1, Full length USP8 (USP8FL) (Homo sapiens, UniProt P40818); experiment: USP8FL (full length USP8) enzymatic inhibition, Ub-Rhodamine 110 hydrolysis in L-cysteine buffer; format: biochemical
# T1 construct: purchased BostonBiochem E-520
# T1 sequence (P40818 1-1118): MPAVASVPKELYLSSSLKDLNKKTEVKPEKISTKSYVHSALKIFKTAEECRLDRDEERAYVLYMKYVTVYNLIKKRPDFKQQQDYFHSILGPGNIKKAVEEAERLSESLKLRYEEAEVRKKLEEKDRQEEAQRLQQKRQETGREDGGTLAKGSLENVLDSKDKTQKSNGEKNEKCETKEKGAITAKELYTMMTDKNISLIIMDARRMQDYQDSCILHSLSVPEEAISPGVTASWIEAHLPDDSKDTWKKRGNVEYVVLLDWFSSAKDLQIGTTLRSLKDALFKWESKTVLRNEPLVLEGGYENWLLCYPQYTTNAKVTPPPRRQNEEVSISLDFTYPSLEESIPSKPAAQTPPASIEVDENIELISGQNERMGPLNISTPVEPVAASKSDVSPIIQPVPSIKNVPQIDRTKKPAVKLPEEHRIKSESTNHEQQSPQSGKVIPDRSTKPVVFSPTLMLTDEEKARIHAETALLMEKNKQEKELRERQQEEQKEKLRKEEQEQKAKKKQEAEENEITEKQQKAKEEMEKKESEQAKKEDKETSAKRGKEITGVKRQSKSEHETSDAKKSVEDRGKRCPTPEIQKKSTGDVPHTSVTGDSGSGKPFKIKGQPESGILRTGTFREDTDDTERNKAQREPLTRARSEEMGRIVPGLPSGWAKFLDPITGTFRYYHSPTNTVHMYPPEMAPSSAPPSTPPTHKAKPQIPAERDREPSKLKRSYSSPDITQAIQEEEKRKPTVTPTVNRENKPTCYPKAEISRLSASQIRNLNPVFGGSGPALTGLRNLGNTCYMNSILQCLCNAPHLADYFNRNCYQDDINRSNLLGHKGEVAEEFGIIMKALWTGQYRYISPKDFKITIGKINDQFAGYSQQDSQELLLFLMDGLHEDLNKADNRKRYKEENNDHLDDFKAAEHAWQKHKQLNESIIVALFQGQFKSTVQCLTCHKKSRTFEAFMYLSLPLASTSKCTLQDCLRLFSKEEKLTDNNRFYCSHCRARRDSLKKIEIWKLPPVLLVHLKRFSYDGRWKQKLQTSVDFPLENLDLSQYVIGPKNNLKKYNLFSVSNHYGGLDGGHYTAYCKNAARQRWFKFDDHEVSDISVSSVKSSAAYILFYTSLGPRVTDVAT
# Procedure: USP8 FL (USP8 Full Length) was incubated at a concentration of 75 nM in the presence of Ub-Rho (UBIQUIGENT ref. 60-0117-050) at a final concentration of 0.1 μM, in conditions ensuring linearity of enzyme activity throughout the assay in a specific buffer. Compounds were added to the reaction mix at different doses just before the substrate. The enzymatic reaction kinetics were monitored by measuring fluorescence elicited by the hydrolysis of Ub-Rho over 30 min.
# In this setup, an in-house purified catalytic domain of USP8 (USP8CD) was used at a concentration of 80 nM in the presence of the artificial substrate Ubiquitin-Rhodamine 110 (Ub-Rho) (ref: 60-0117-050 Ubiquigent) at a final concentration of 0.1 μM, in conditions ensuring linearity of enzyme activity throughout the assay incubation time. Enzymatic assay was performed in a Tris HCl buffer (40 mM Tris HCl pH 7.4, Ovalbumine 0.5 mg/ml, Cysteine HCl 5.5 mM). Compounds to be tested were added to the reaction mix and incubated with enzyme for 20 min, before the substrate. The enzymatic reaction kinetics were monitored by measuring fluorescence elicited by the hydrolysis of the peptidyl Ub-Rho over 30 minutes. The negative control was the solvent DMSO at 1%.
# Full length USP8 (USPBFL) (BostonBiochem ref. E-520) were used at a concentration of 75 nM in the presence of a ubiquitin substrate, i.e., the Ub-Rhodamine 110 (Ub-Rho) (Ubiquigent ref. 60-0117-050) at a final concentration of 0.1 μM. Enzymatic assays were performed as described for USP8-CD except that USP-FL was used at a concentration of 75 nM. The compounds were used at a final concentration of 0.1, 1, 5, 10, 50 and 100 μM in DMSO 0.5%. The USP8 catalytic activity was monitored both before adding the substrate (TO) and after twenty minutes of incubation at room temperature (Final Time TF). The enzymatic reaction kinetics were monitored by measuring fluorescence elicited by the hydrolysis of the Ub-Rho bound over 30 minutes.
# Source text for AtT-20 cells: The AtT-20 cells viability was monitored in the conditions used to follow ACTH secretion. The viability of treated cells was concomitantly evaluated using a Cell Viability Reagent (monitoring of the cells' reducing capacity) (PrestoBlue® assay, Molecular Probes) with the aim to determine non-toxic doses of cell treatment.
# After the collection of the supernatant sample for the ACTH assay in the previous step, cells were supplemented with the PrestoBlue™ cell viability reagent (Invitrogen™ A13261) at 10% final volume, and re-incubated at 37° C. for 30 minutes. Fluorescence was then read with a FLUOstar OPTIMA microplate reader.
smiles,measurement,setting,value
"Cc1cc(C(C#N)c2ccc(Cl)cc2)c(Cl)cc1NC(=O)c1cc(I)cc(I)c1O (stereo not shown) [Closantel, reference compound]","dose-dependent viability assay, in words (FIG. 7)",AtT-20 cells,less cytotoxic than niclosamide
same,AtT-20 cell viability (PrestoBlue assay) % of control (DMSO) at 25 μM Mean (SD),"AtT-20 cells; mouse, 24 h, 25 μM",104.8 (16.08) %
same,activity against USP8 (CD and FL),[1]; USP8 CD and FL,active
same,IC50,"[1]; USP8 FL 75 nM, Ub-Rho 0.1 μM, L-cysteine buffer, read-out: USP8FL inhbition IC50 [μM] (CI: Confidence Interval)",12 µM
